# Assay results reported in PMC3969223, “Characterization of WZ4003 and HTH-01-015 as selective inhibitors of the LKB1-tumour-suppressor-activated NUAK kinases” (Biochemical Journal, 2013).
# Legend:
# Assay in all cases: Kinase profiling
# Type in all cases: biochemical
# Conditions in all cases: 0.1 or 1 μM inhibitor; mean of triplicate
# EPH-B4 = EPH-B4 (Homo sapiens, UniProt P54760)
# CAMK1 = CAMK1 (Homo sapiens, UniProt Q14012)
# Outline: (§1)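 Read-out: % residual kinase activity vs DMSO control; mean of triplicates ±S.D. Inhibitor tested at 0.1 or 1 μM in vitro across a 140-kinase panel.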
# PIM3 = PIM3 (Homo sapiens, UniProt Q86V86)
# Outline: as §1
# S6K1 = S6K1 (Homo sapiens, UniProt P23443)
# Outline: as §1
# JNK2 = JNK2 (Homo sapiens, UniProt P45984)
# Outline: as §1
# EPH-A2 = EPH-A2 (Homo sapiens, UniProt P29317)
# Outline: as §1
# ZAP70 = ZAP70 (Homo sapiens, UniProt P43403)
# Outline: as §1
# MLK3 = MLK3 (Homo sapiens, UniProt Q16584)
# Outline: as §1
# BRK = BRK (Homo sapiens, UniProt Q13882)
# Outline: as §1
# DYRK3 = DYRK3 (Homo sapiens, UniProt O43781)
# Outline: as §1
# EF2K = EF2K (Homo sapiens, UniProt O00418)
# SYK = SYK (Homo sapiens, UniProt P43405)
# Outline: as §1
# STK33 = STK33 (Homo sapiens, UniProt Q9BYT3)
# Outline: as §1
# PAK4 = PAK4 (Homo sapiens, UniProt O96013)
# DYRK2 = DYRK2 (Homo sapiens, UniProt Q92630)
# Outline: as §1
# ERK1 = ERK1 (Homo sapiens, UniProt P27361)
# Outline: as §1
# MNK2 = MNK2 (Homo sapiens, UniProt Q9HBH9)
# Outline: as §1
# SmMLCK = SmMLCK (Homo sapiens, UniProt Q15746)
# Outline: as §1
# PLK1 = PLK1 (Homo sapiens, UniProt P53350)
# MST2 = MST2 (Homo sapiens, UniProt Q13188)
# Outline: as §1
# IKKβ = IKKβ (Homo sapiens, UniProt O14920)
# Outline: as §1
# Lck = Lck (Homo sapiens, UniProt P06239)
# Outline: as §1
# CDK9-Cyc T1 = CDK9-Cyc T1 (Homo sapiens, UniProt P50750)
# PKA = PKA (Homo sapiens, UniProt P17612)
# Outline: as §1
# BRSK2 = BRSK2 (Homo sapiens, UniProt Q8IWQ3)
# Outline: as §1
# MELK = MELK (Homo sapiens, UniProt Q14680)
# Outline: as §1
# HER4 = HER4 (Homo sapiens, UniProt Q15303)
# Outline: as §1
# CLK2 = CLK2 (Homo sapiens, UniProt P49760)
# Outline: as §1
# WNK1 = WNK1 (Homo sapiens, UniProt Q9H4A3)
# Outline: as §1
# MST3 = MST3 (Homo sapiens, UniProt Q9Y6E0)
# MSK1 = MSK1 (Homo sapiens, UniProt O75582)
# Outline: as §1
# p38α MAPK = p38α MAPK (Homo sapiens, UniProt Q16539)
# Outline: as §1
# JNK1 = JNK1 (Homo sapiens, UniProt P45983)
# OSR1 = OSR1 (Homo sapiens, UniProt O95747)
# Outline: as §1
# PAK5 = PAK5 (Homo sapiens, UniProt Q9P286)
# Outline: as §1
# TAK1 = TAK1 (Homo sapiens, UniProt O43318)
# Outline: as §1
# MARK2 = MARK2 (Homo sapiens, UniProt Q7KZI7)
# Outline: as §1
# RSK1 = RSK1 (Homo sapiens, UniProt Q15418)
# Outline: as §1
# PKCα = PKCα (Homo sapiens, UniProt P17252)
# Outline: as §1
# SGK1 = SGK1 (Homo sapiens, UniProt O00141)
# Outline: as §1
# CHK1 = CHK1 (Homo sapiens, UniProt O14757)
# Outline: as §1
# ULK2 = ULK2 (Homo sapiens, UniProt Q8IYT8)
# Outline: as §1
# Sequence of S6K1 (P23443 whole entry): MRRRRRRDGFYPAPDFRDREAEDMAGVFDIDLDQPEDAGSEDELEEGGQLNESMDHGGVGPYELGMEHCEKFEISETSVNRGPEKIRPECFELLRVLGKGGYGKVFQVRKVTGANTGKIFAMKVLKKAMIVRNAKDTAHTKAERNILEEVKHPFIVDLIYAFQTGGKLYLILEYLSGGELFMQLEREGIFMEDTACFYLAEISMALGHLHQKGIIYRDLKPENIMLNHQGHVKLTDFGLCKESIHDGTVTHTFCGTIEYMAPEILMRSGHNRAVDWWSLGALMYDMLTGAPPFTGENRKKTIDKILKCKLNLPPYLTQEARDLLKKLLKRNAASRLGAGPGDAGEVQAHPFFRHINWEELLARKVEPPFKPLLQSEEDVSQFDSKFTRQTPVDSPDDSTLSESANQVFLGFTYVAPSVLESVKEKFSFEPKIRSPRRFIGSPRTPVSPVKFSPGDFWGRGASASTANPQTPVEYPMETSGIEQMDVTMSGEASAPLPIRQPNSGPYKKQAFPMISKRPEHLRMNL
# Sequence of IKKβ (O14920 whole entry): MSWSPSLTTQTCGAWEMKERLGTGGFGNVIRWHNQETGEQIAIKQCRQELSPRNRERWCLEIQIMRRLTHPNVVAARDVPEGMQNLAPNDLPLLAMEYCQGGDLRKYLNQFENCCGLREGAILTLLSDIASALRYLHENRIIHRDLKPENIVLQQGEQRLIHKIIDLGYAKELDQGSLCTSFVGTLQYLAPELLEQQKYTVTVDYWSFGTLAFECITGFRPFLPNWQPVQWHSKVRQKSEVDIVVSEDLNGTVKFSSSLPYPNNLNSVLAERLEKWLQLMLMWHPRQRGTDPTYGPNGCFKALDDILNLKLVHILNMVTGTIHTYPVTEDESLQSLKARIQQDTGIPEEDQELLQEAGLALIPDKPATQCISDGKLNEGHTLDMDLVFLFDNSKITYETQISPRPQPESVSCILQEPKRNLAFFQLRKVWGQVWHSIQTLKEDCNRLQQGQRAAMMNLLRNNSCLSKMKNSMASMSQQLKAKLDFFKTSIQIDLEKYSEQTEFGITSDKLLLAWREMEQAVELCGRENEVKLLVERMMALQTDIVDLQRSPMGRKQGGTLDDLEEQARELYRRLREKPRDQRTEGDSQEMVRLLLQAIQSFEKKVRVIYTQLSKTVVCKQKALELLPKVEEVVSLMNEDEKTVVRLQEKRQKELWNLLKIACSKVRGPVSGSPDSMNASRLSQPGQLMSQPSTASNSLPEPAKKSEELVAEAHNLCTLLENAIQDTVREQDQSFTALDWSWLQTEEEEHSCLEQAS
# Sequence of EPH-B4 (P54760 16-987): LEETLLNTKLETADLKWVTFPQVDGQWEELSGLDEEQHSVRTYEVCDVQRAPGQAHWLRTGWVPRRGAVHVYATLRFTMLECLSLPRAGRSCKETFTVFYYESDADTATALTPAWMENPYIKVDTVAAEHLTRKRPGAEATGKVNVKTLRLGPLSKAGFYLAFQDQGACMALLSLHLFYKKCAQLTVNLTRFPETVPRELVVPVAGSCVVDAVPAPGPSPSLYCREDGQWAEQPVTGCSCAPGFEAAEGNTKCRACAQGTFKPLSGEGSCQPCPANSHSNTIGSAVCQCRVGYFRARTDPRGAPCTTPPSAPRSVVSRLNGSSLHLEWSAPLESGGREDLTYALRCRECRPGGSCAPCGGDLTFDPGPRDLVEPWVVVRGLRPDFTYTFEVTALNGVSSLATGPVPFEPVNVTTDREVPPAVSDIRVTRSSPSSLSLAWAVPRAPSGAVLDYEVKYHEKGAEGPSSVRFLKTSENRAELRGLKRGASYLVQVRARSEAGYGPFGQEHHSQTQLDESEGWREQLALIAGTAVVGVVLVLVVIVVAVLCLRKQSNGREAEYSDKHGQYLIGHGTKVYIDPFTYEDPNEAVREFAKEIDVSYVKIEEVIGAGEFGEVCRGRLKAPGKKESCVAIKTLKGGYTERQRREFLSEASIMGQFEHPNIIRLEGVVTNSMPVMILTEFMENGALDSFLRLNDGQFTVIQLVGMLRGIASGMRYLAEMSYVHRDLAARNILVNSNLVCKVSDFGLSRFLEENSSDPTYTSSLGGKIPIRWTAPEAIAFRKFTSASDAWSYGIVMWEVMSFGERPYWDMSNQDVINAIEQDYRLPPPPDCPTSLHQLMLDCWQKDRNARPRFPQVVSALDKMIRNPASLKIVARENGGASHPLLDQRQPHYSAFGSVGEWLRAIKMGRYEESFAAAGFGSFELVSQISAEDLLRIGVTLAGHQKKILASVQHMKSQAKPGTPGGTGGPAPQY
# Sequence of PAK4 (O96013 whole entry): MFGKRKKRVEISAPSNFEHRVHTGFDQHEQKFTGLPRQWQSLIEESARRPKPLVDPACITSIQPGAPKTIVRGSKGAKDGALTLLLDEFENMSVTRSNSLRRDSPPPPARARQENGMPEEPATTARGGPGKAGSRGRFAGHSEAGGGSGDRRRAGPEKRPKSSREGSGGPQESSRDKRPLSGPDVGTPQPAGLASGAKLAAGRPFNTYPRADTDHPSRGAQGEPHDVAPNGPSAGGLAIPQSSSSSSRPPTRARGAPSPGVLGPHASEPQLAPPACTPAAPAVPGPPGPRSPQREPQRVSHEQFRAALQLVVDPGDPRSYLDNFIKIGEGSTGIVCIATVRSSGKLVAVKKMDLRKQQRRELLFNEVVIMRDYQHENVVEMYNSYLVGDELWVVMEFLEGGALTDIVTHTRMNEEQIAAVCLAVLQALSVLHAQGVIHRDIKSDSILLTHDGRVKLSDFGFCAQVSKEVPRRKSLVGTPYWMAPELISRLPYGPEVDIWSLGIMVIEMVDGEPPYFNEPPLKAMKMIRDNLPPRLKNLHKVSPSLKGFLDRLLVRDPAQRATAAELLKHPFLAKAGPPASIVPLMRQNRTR
# Sequence of JNK2 (P45984 whole entry): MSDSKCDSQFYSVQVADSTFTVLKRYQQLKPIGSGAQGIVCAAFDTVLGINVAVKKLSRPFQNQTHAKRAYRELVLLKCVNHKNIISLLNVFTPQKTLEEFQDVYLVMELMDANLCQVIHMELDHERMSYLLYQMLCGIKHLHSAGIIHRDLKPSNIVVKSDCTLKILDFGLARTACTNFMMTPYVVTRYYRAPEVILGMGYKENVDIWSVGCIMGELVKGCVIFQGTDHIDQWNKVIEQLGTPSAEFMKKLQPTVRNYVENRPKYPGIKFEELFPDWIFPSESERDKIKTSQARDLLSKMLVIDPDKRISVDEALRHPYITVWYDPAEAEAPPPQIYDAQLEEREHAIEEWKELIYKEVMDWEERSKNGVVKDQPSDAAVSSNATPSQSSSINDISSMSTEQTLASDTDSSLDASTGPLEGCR
# Sequence of CHK1 (O14757 whole entry): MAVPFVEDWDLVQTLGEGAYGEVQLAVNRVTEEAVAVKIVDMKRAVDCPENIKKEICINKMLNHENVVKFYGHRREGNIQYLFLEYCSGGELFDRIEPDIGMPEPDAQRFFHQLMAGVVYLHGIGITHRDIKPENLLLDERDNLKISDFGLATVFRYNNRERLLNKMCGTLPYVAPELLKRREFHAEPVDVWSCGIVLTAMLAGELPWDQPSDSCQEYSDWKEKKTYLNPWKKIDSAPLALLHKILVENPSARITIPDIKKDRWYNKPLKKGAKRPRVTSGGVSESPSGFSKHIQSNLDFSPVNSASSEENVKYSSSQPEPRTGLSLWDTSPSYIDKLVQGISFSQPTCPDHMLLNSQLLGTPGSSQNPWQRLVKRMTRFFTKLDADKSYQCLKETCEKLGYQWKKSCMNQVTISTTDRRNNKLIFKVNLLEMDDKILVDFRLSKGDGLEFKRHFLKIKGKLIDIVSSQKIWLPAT
# Sequence of STK33 (Q9BYT3 whole entry): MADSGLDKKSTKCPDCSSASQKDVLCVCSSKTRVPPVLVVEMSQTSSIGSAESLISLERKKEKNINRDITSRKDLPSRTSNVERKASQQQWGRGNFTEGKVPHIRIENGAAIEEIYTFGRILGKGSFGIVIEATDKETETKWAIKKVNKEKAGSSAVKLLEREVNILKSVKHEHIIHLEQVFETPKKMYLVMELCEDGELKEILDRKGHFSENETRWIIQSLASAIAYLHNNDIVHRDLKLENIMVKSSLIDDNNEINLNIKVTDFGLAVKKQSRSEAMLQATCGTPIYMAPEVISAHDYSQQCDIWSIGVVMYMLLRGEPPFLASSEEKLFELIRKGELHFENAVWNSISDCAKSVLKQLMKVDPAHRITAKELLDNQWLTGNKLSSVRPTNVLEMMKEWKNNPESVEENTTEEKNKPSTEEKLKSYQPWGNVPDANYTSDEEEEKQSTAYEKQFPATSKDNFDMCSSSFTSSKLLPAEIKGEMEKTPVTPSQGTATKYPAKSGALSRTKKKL
# Sequence of MST2 (Q13188 whole entry): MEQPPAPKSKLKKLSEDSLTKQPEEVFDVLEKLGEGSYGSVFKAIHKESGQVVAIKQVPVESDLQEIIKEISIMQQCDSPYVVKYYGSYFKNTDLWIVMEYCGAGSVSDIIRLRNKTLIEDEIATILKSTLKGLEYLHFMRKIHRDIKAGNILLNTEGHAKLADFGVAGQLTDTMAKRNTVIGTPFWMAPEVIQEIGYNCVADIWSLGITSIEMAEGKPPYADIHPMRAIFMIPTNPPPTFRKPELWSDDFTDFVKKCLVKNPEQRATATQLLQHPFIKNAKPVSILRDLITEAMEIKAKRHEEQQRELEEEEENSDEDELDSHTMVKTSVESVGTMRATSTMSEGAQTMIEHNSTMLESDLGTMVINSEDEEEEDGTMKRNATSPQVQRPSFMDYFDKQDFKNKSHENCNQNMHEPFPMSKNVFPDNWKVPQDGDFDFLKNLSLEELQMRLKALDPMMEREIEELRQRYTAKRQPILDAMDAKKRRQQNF
smiles,measurement,setting,value
Cc1nc(Nc2cnn(C3CCNCC3)c2)nc2c1N(C)C(=O)c1cc3ccccc3cc1N2C [HTH-01-015],"EPH-B4 activity, percentage of DMSO control",EPH-B4,102 percentage
same,"CAMK1 activity, percentage of DMSO control",CAMK1,92 percentage
same,"PIM3 activity, percentage of DMSO control",PIM3,97 percentage
same,"S6K1 activity, percentage of DMSO control",S6K1,85 percentage
same,"JNK2 activity, percentage of DMSO control",JNK2,130 percentage
same,"EPH-A2 activity, percentage of DMSO control",EPH-A2,84 percentage
same,"ZAP70 activity, percentage of DMSO control",ZAP70,103 percentage
same,"MLK3 activity, percentage of DMSO control",MLK3,94 percentage
same,"BRK activity, percentage of DMSO control",BRK,96 percentage
same,"DYRK3 activity, percentage of DMSO control",DYRK3,98 percentage
same,"EF2K activity, percentage of DMSO control",EF2K,103 percentage
same,"SYK activity, percentage of DMSO control",SYK,125 percentage
same,"STK33 activity, percentage of DMSO control",STK33,93 percentage
same,"PAK4 activity, percentage of DMSO control",PAK4,110 percentage
same,"DYRK2 activity, percentage of DMSO control",DYRK2,113 percentage
same,"ERK1 activity, percentage of DMSO control",ERK1,83 percentage
same,"MNK2 activity, percentage of DMSO control",MNK2,106 percentage
same,"SmMLCK activity, percentage of DMSO control",SmMLCK,77 percentage
same,"PLK1 activity, percentage of DMSO control",PLK1,98 percentage
same,"MST2 activity, percentage of DMSO control",MST2,118 percentage
same,"IKKβ activity, percentage of DMSO control",IKKβ,81 percentage
same,"Lck activity, percentage of DMSO control",Lck,90 percentage
same,"CDK9-Cyc T1 activity, percentage of DMSO control",CDK9-Cyc T1,68 percentage
same,"PKA activity, percentage of DMSO control",PKA,101 percentage
same,"BRSK2 activity, percentage of DMSO control",BRSK2,97 percentage
same,"MELK activity, percentage of DMSO control",MELK,99 percentage
same,"HER4 activity, percentage of DMSO control",HER4,102 percentage
same,"CLK2 activity, percentage of DMSO control",CLK2,54 percentage
same,"WNK1 activity, percentage of DMSO control",WNK1,99 percentage
same,"MST3 activity, percentage of DMSO control",MST3,111 percentage
same,"MSK1 activity, percentage of DMSO control",MSK1,111 percentage
same,"p38α MAPK activity, percentage of DMSO control",p38α MAPK,118 percentage
same,"JNK1 activity, percentage of DMSO control",JNK1,100 percentage
same,"OSR1 activity, percentage of DMSO control",OSR1,107 percentage
same,"PAK5 activity, percentage of DMSO control",PAK5,95 percentage
same,"TAK1 activity, percentage of DMSO control",TAK1,109 percentage
same,"MARK2 activity, percentage of DMSO control",MARK2,99 percentage
same,"RSK1 activity, percentage of DMSO control",RSK1,93 percentage
same,"PKCα activity, percentage of DMSO control",PKCα,117 percentage
same,"SGK1 activity, percentage of DMSO control",SGK1,97 percentage
same,"CHK1 activity, percentage of DMSO control",CHK1,106 percentage
CCC(=O)Nc1cccc(Oc2nc(Nc3ccc(N4CCN(C)CC4)cc3OC)ncc2Cl)c1 [WZ4003],"ULK2 activity, percentage of DMSO control",ULK2,37 percentage
